How the values were obtained:
[1] = system: S. Hominis; assay: Growth of S. hominis in the presence of fatty acids (absorbance 620 nm growth curve); assay type: cell-based; conditions: saturated fatty acids, concentration per example, at the end of 24 to 30 hours, control = 100.0
Description: • 5% of fatty acid stock is made in DMSO-0.5 g in 10 ml of DMSO • 2.68% of fatty acid (Total volume 5 ml) is made with 2.68 ml of 5% fatty acid stock+[…] of DMSO+0.45 ml of Tween 80. • Test samples: 50 μl 2.68% stock in 4.95 ml 1/10th diluted TSB (test samples)
(§1) The microorganism (S. epidermidis or S. hominis as the case may be) was streaked on TSA agar plate and incubated at 37° C. for 24 hr
Plate cultures of the microorganism was used to set up 0.3 OD620nm (corresponding to log 10^8 CFU/ml) in 1× PBS (pH7.4)
(§2) The test samples (200 μl) were added to 96 well plate, followed by addition of above set cultures (20 μl).
(§3) The 96 well plate was placed in a Tecan reader and absorbance was read at 620 nm for a period of 24-30 h with a kinetic interval of 1 h
(§4) The values obtained is plotted as a growth curve with X-axis representing time in hour and Y-axis as absorbance read at 620 nm.
Experiments similar to those in Table-1 were carried out except that the microorganism used was S. Hominis.

[2] = system: S. epidermidis; assay: Growth of S. epidermidis in the presence of fatty acids (absorbance 620 nm growth curve); assay type: cell-based; conditions: Staphylococcus epidermidis, read-out: % increase over control; for activity at 0.001 %: unsaturated fatty acids at 0.001%, at the end of 24 to 30 hours, control = 100.0; for activity at 0.01 %: oleic acid, linoleic acid at 0.01% and their combination, control = 100
Description: Experiments were carried out on the growth of S. Epidermidis in the presence of various fatty acids using the following procedure.
as §1, §2, §3, §4

Row | SMILES | % increase over control [1] | activity at 0.001 % [2] | also measured
1 | CCCCCCCCCCCC(=O)O [D, Lauric acid] | 63.0% |  | 
2 | CCCCCCCCCCCCCC(=O)O [E, myristic acid] | 52.0% |  | 
3 | CCCCCCCCCCCCCCCCCCCC(=O)O [Example 5, arachidic acid] | 123.0% |  | 
4 | CCCCCCCCCCCCCCCCCCCCCCCC(=O)O [Example 6, lignoceric acid] | 153.0% |  | 
5 | CCCCCCCC/C=C\CCCCCCCC(=O)O [Example 7, Oleic acid] |  | 132% | 
6 | CCCCC/C=C\C/C=C\CCCCCCCC(=O)O [Example 8, Linoleic acid] |  | 146% | 
7 | CCCCCCCC/C=C\CCCCCCCC(=O)O [Example 11, Oleic acid] |  |  | activity at 0.01 % [2]: 135%
8 | CCCCC/C=C\C/C=C\CCCCCCCC(=O)O [Example 12, Linoleic acid] |  |  | activity at 0.01 % [2]: 132%
9 | CCCCCCCCCCCCCCCC(=O)O [Example F, palmitic acid] | 104.0% |  | 
10 | CCCCCC/C=C\CCCCCCCC(=O)O [Example G, Palmitoleic acid, reference compound] |  | 98.4% | 

Reference: patent US20260060908A1, “USE OF FATTY ACIDS FOR MICROBIOME BENEFIT AND COMPOSITIONS COMPRISING THE SAME” (Conopco, Inc., d/b/a UNILEVER, priority 2022, published 2026)
